In patent publication US7858606B2, “Triterpenoid derivatives” (Univerzita Palackeho v Olomouci, priority 2001, dated 2010):
Where two headings read alike, the source gives them in different places.

Tests used:
Format in all cases: cell-based
[1] = test system: Human T-lymphoblastic leukaemia cell line CEM; assay: MTT cytotoxicity screening assay, CEM; settings: human T-lymphoblastic leukemia, 72 hours, read-out: TCS50
Excerpt: (§1) One of the parameters used as the basis for colorimetric assays is the metabolic activity of viable cells. For example, a microtiter assay which uses the tetrazolium salt MTT is now widely used to quantitate cell proliferation and cytotoxicity [Hajdúch M, Mihál V, Minarík J, Fáber E, Safárová M, Weigl E, Antálek P.: Cytotechnology, 1996, 19, 243-245]. For instance, this assay is used in drug screening programs and in chemosensitivity testing. Because tetrazolium salts are cleaved only by metabolically active cells, these assays exclusively detect viable cells. In the case of the MTT assay, yellow soluble tetrazolium salt is reduced to a coloured water-insoluble formazan salt. After it is solubilized, the formazan formed can easily and rapidly be quantified in a conventional ELISA plate reader at 570 nm (maximum absorbency). The quantity of reduced formazan corresponds to the number of vital cells in the culture.
(§2) Human T-lymphoblastic leukaemia cell line CEM was used for routine screening of these compounds. […] The cells were maintained in Nunc/Corning 80 cm^2 plastic tissue culture flasks and cultured in cell culture medium (DMEM with 5 g/l glucose, 2 mM glutamine, 100 U/ml penicillin, 100 μg/ml streptomycin, 10% foetal calf serum and sodium bicarbonate). Individual compounds were dissolved in 10% dimethylsulfoxide/saline, pH 8.0.
The cell suspensions that were prepared and diluted according to the particular cell type and the expected target cell density (2.500-30.000 cells per well based on cell growth characteristics) were added by pipette (80 μl) into 96/well microtiter plates. Inoculates were allowed a pre-incubation period of 24 hours at 37° C. and 5% CO2 for stabilisation. Four-fold dilutions of the intended test concentration were added at time zero in 20 μl aliquots to the microtiter plate wells. Usually, test compounds were evaluated at six 4-fold dilutions. In routine testing, the highest well concentration was 250 μM, but it may differ, depending on the agent. All drug concentrations were examined in duplicate. Incubations of cells with the test compounds lasted for 72 hours at 37° C., in 5% CO2 atmosphere and 100% humidity. At the end of the incubation period, the cells were assayed by using the MTT assay. Ten microliters of the MTT stock solution were pipetted into each well and incubated further for 1-4 hours. After this incubation period, formazan was solubilized by the addition of 100 μl/well of 10% SDS in water (pH=5.5) followed by further incubation at 37° C. overnight. The optical density (OD) was measured at 540 nm with the Labsystem iEMS Reader MF(UK). The tumour cell survival (TCS) was calculated using the following equitation: TCS=(ODdrug exposed well/mean ODcontrol wells)×100%. The TCS50 value, the drug concentration lethal to 50% of the tumour cells, was calculated from the obtained dose response curves.
To evaluate the anti-cancer activity of betulinines, their cytotoxic activity against CEM cell line was examined using the screening assay. Potent compounds were further tested against a panel of cell lines of different histogenetic and species origin (Table 2).

[2] = test system: B16 mouse melanoma cell line; assay: MTT cytotoxicity assay, B16; settings: 72 hours, read-out: TCS50
Excerpt: as §1, §2
(§3) The cell suspensions that were prepared and diluted according to the particular cell type and the expected target cell density (2.500-30.000 cells per well based on cell growth characteristics) were added by pipette (80 μl) into 96/well microtiter plates. […] Usually, test compounds were evaluated at six 4-fold dilutions. […] The optical density (OD) was measured at 540 nm with the Labsystem iEMS Reader MF(UK). The tumour cell survival (TCS) was calculated using the following equitation: TCS=(ODdrug exposed well/mean ODcontrol wells)×100%. The TCS50 value, the drug concentration lethal to 50% of the tumour cells, was calculated from the obtained dose response curves.

[3] = test system: B16F mouse melanoma, metastatic cell line; assay: MTT cytotoxicity assay, B16F; settings: 72 hours, read-out: TCS50
Excerpt: as §1, §2, §3

[4] = test system: SW620 human colon cancer, metastasis; assay: MTT cytotoxicity assay, SW620; settings: read-out: TCS50
Excerpt: as §1, §2, §3

U87MG human glioblastoma = assay: MTT cytotoxicity assay, U87MG; settings: 72 hours, read-out: TCS50
Excerpt: as §1, §2, §3

[5] = test system: HepG2 human hepatocellular carcinoma; assay: MTT cytotoxicity assay, HepG2; settings: 72 hours, read-out: TCS50
Excerpt: as §1, §2, §3

U2OS human osteosarcoma = assay: MTT cytotoxicity assay, U2OS; settings: p53+/−, Rb +/−, 72 hours, read-out: TCS50
Excerpt: as §1, §2, §3

Saos2 human = assay: MTT cytotoxicity assay, Saos2; settings: p53−/−, Rb−/−, 72 hours, read-out: TCS50
Excerpt: as §1, §2, §3

[6] = test system: BT549 human breast cancer; assay: MTT cytotoxicity assay, BT549; settings: 72 hours, read-out: TCS50
Excerpt: as §1, §2, §3

HT-29 human colon cancer = assay: MTT cytotoxicity assay, HT-29; settings: 72 hours, read-out: TCS50
Excerpt: as §1, §2, §3

[7] = test system: Caco-2 human colon cancer; assay: MTT cytotoxicity assay, Caco-2; settings: 72 hours, read-out: TCS50
Excerpt: as §1, §2, §3

MEL-3 human melanoma = assay: MTT cytotoxicity assay, MEL-3; settings: 72 hours, read-out: TCS50
Excerpt: as §1, §2, §3

human normal lymphocytes = assay: MTT cytotoxicity assay, normal lymphocytes; settings: human normal lymphocytes (non-malignant), 72 hours, read-out: TCS50
Excerpt: as §1, §2, §3

[8] = test system: NIH3T3 mouse immortalised fibroblasts; assay: MTT cytotoxicity assay, NIH3T3; settings: NIH3T3, mouse immortalised fibroblasts (non-malignant), 72 hours, read-out: TCS50
Excerpt: as §1, §2, §3

[9] = test system: K562-CdA human promyelocytic leukemia, cladrubin resistant; assay: MTT cytotoxicity assay, K562-CdA; settings: 72 hours, read-out: TCS50
Excerpt: as §1, §2, §3

[10] = test system: K562-ARA-C human promyelocytic leukemia, cytarabin resistant; assay: MTT cytotoxicity assay, K562-ARA-C; settings: 72 hours, read-out: TCS50
Excerpt: as §1, §2, §3

[11] = test system: K562-FLUD human promyelocytic leukemia, fludarabin resistant; assay: MTT cytotoxicity assay, K562-FLUD; settings: 72 hours, read-out: TCS50
Excerpt: as §1, §2, §3

[12] = test system: CEM-DNR 1/C2 human T-lymphoblastic leukemia, daunorubicin resistant; assay: MTT cytotoxicity assay, CEM-DNR 1/C2; settings: 72 hours, read-out: TCS50
Excerpt: as §1, §2, §3

[13] = test system: CEM-DNR bulk human T-lymphoblastic leukemia, daunorubicin resistant; assay: MTT cytotoxicity assay, CEM-DNR bulk; settings: 72 hours, read-out: TCS50
Excerpt: as §1, §2, §3

[14] = test system: CEM-VCR 1/F3 human T-lymphoblastic leukemia, vincristin resistant; assay: MTT cytotoxicity assay, CEM-VCR 1/F3; settings: 72 hours, read-out: TCS50
Excerpt: as §1, §2, §3

[15] = test system: CEM-VCR 3/D5 human T-lymphoblastic leukemia, vincristin resistant; assay: MTT cytotoxicity assay, CEM-VCR 3/D5; settings: 72 hours, read-out: TCS50
Excerpt: as §1, §2, §3

[16] = test system: CEM-VCR bulk human T-lymphoblastic leukemia, vincristin resistant; assay: MTT cytotoxicity assay, CEM-VCR bulk; settings: 72 hours, read-out: TCS50
Excerpt: as §1, §2, §3

[17] = test system: A549 human lung adenocarcinoma; assay: MTT cytotoxicity assay, A549; settings: 72 hours, read-out: TCS50
Excerpt: as §1, with “culture. […]” for “culture.”
(§4) The cell suspensions that were prepared and diluted according to the particular cell type and the expected target cell density (2.500-30.000 cells per well based on cell growth characteristics) were added by pipette (80 μl) into 96/well microtiter plates. […] Usually, test compounds were evaluated at six 4-fold dilutions. […] The optical density (OD) was measured at 540 nm with the Labsystem iEMS Reader MF(UK). […]

[18] = test system: MCF-7 human breast cancer; assay: MTT cytotoxicity assay, MCF-7; settings: estrogen dependent, p53+/+, Rb +/+, 72 hours, read-out: TCS50
Excerpt: as §1, with “culture. […]” for “culture.”
as §4

[19] = test system: MDA-MB-238 human breast cancer; assay: MTT cytotoxicity assay, MDA-MB-238; settings: estrogen independent, p53mut/mut, 72 hours, read-out: TCS50
Excerpt: as §1, with “culture. […]” for “culture.”
as §4

[20] = test system: LNCaP human prostate cancer; assay: MTT cytotoxicity assay, LNCaP; settings: androgen dependent, 72 hours, read-out: TCS50
Excerpt: as §1, with “culture. […]” for “culture.”
as §4

[21] = test system: DU145 human prostate cancer; assay: MTT cytotoxicity assay, DU145; settings: androgen independent, Rb−/−, 72 hours, read-out: TCS50
Excerpt: as §1, with “culture. […]” for “culture.”
as §4

[22] = test system: OVCAR-3 human ovarian cancer; assay: MTT cytotoxicity assay, OVCAR-3; settings: 72 hours, read-out: TCS50
Excerpt: as §1, with “culture. […]” for “culture.”
as §4

[23] = test system: K562-GEM human promyelocytic leukemia, gemcitabin resistant; assay: MTT cytotoxicity assay, K562-GEM; settings: 72 hours, read-out: TCS50
Excerpt: as §1, with “culture. […]” for “culture.”
as §4

Molecule	IC50 [1]	IC50 [2]	IC50 [3]	IC50 [5]	IC50 (U2OS human osteosarcoma)	IC50 (HT-29 human colon cancer)	IC50 [7]	IC50 (MEL-3 human melanoma)	IC50 [8]	IC50 [9]	IC50 [10]	IC50 [11]	IC50 [12]	IC50 [13]	IC50 [14]	IC50 [15]	IC50 [16]	IC50 ([4]; 72 hours)	IC50 (U87MG human glioblastoma)	IC50 [17]	further results
3β-acetoxy-lup-20(29)-en-28-oyl fluoride [II.55]	19 µM	–	–	–	–	–	–	–	–	–	–	–	–	–	–	–	–	–	–	–	–
C=C(C)[C@@H]1CC[C@]2(C(=O)O)CC[C@]3(C)[C@H](CC[C@@H]4[C@@]5(C)CC[C@H](O)C(C)(C)[C@@H]5CC[C@]43C)[C@@H]12 [Betulinic acid, betulinic acid, reference compound]	250 µM	36 µM	4.6 µM	3.6 µM	250 µM	250 µM	20 µM	2.7 µM	250 µM	250 µM	250 µM	250 µM	250 µM	250 µM	19 µM	24 µM	69 µM	–	–	–	IC50 ([4]; SW-620, 72 hours): 250 µM; IC50 (U87MG human glioblastoma; U-87 MG): 250 µM; IC50 (Saos2 human; SAOS-2, Saos2, human rhabdomyosarcoma): 250 µM; IC50 ([6]; BT-549, p53mut/mut): 250 µM; IC50 (human normal lymphocytes; Lymphocyte): 250 µM
COC(=O)C12CCC3(C)C(CCC4C5(C)CCC(OC(C)=O)C(C)(C)C5CCC43C)C1=C(C(C)C)C(=O)C2=O (stereo not drawn) [II.4, methyl 3β-acetoxy-21,22-dioxolup-18-en-28-oate]	7.2 µM	35 µM	68 µM	5.1 µM	4.3 µM	5.6 µM	8.1 µM	5.9 µM	97 µM	5.2 µM	6.4 µM	4.9 µM	10 µM	5.2 µM	38 µM	13 µM	28 µM	5.9 µM	24 µM	6.7 µM	IC50 [18]: 13 µM; IC50 (Saos2 human; Saos2, human rhabdomyosarcoma): 7.9 µM; IC50 ([6]; p53mut/mut): 15 µM; IC50 [19]: 3.3 µM; IC50 [20]: 3.3 µM; IC50 [21]: 2 µM; IC50 [22]: 4.7 µM; IC50 (human normal lymphocytes): 85 µM; IC50 [23]: 5 µM
C=C(C=O)[C@@H]1CC[C@]2(C(=O)O)CC[C@]3(C)[C@H](CC[C@@H]4[C@@]5(C)CC[C@H](O)C(C)(C)[C@@H]5CC[C@]43C)[C@@H]12 [II.14, 3β-hydroxy-30-oxolup-20(29)-en-28-oic acid]	3 µM	9.3 µM	12 µM	7.1 µM	3.9 µM	4.7 µM	7.7 µM	3.7 µM	16 µM	2.1 µM	1.6 µM	1.3 µM	1.6 µM	3.3 µM	5.9 µM	7.8 µM	7 µM	5.9 µM	8.4 µM	3.3 µM	IC50 [18]: 4.3 µM; IC50 (Saos2 human; Saos2, human rhabdomyosarcoma): 4.8 µM; IC50 ([6]; p53mut/mut): 6.3 µM; IC50 [19]: 2.4 µM; IC50 [20]: 3.6 µM; IC50 [21]: 2.8 µM; IC50 [22]: 2.6 µM; IC50 (human normal lymphocytes): 25 µM; IC50 [23]: 2.4 µM
C=C(C)C1CCC2(C(=O)OC)CCC3(C)C(CCC4C5(C)CCC(OC(=O)OCC(O)CO)C(C)(C)C5CCC43C)C12 (stereo not drawn) [II.45, 17β-methoxycarbonyl-28-norlup-20(29)-en-3β-yl(2,3-dihydroxypropyl)carbonate]	13 µM	–	–	–	–	–	–	–	–	–	–	–	–	–	–	–	–	–	–	–	–
